# Assay results published in PubChem BioAssay (NCI).
#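 Each compound was tested at five concentrations against cells in 96-well plates for 48 hours. At the TGI there is no net growth.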
# What was measured:
# Assay in all cases: DTP human tumour cell line panel, 48 h
# [1] = tested on: HCT-15 colon
# [2] = tested on: MDA-MB-435
# [3] = tested on: BT-549 breast
# [4] = tested on: OVCAR-8 ovarian
# [5] = tested on: KM12 colon
# [6] = tested on: U251 CNS
# [7] = tested on: HT29 colon
# [8] = tested on: HL-60(TB) leukemia
# [9] = tested on: HOP-62 NSCLC
# [10] = tested on: SK-MEL-28 melanoma
# [11] = tested on: CCRF-CEM leukemia
# [12] = tested on: EKVX NSCLC
# [13] = tested on: MDA-N
# [14] = tested on: NCI/ADR-RES ovarian
# [15] = tested on: M14 melanoma
# [16] = tested on: MALME-3M melanoma
# [17] = tested on: RXF 393 renal
# [18] = tested on: OVCAR-4 ovarian
SMILES,TGI [1] [µM],TGI [2] [µM],TGI [3] [µM],TGI [4] [µM],TGI [5] [µM],TGI [6] [µM],TGI [7] [µM],TGI [8] [µM],TGI [9] [µM],TGI [10] [µM],TGI [11] [µM],TGI [12] [µM],TGI [13] [µM],TGI [14] [µM],TGI [15] [µM],TGI [16] [µM],TGI [17] [µM],TGI [18] [µM]
O=C(NC(Nc1ccc(F)c(Cl)c1)(C(F)(F)F)C(F)(F)F)OCc1ccccc1,94.5,> 100,33.6,> 100,> 100,> 100,> 100,40.3,> 100,> 100,> 100,83.6,56.2,> 100,> 100,> 100,> 100,–
CCOC(=O)/C=C(/C(=O)OCC)n1ccc(=O)n(/C(=C/C(=O)OCC)C(=O)OCC)c1=O,6.32,22.1,30.2,23.2,33.9,29.4,26.8,2.91,46.9,27.9,3.53,36,26.7,55.3,10.6,8.15,9.62,30.6
COc1cccc(C2C3=C(COC3=O)Oc3cc4c(cc32)OCO4)c1 (stereo unspecified),> 42.4,0.0817,> 100,20,6.43,> 100,1.3,0.0524,> 14,> 100,7.74,> 58,< 0.0202,> 6.6,> 100,> 100,> 100,> 100
O=C(c1ccccc1)c1sc2c(=O)c(C(=O)c3ccccc3)c(C(=O)c3ccccc3)sc2c(=O)c1C(=O)c1ccccc1,> 100,70.9,> 100,> 100,> 100,> 100,> 100,48.4,> 100,> 100,> 100,> 100,> 100,74.9,> 100,> 100,72.3,> 100
c1ccc(C[n+]2cccc(-c3cc4ccccc4[nH]3)c2)cc1,> 100,43.7,36.6,> 100,32,> 100,> 100,40.5,96.4,38,38.6,> 100,37.6,> 100,55.2,34.1,> 100,> 100
N#CCCN(CCN(C(=O)Nc1ccccc1)c1ccccc1)C(=O)Nc1ccccc1,> 100,> 100,> 100,> 100,> 100,> 100,> 100,34.7,> 100,> 100,47.7,> 100,> 100,> 100,> 100,> 100,> 90.1,> 100
Cc1ccc(/C=C/C(=O)c2cc(CN(C)C)c(O)c(CN(C)C)c2)cc1,45.4,57,35.4,78.9,25.2,58,33,38.5,37.5,33.6,> 100,> 100,42.5,79.1,39.1,35.6,55,–
COc1cc(N(CCC#N)CCC#N)ccc1/C(N=Nc1ccccc1)=N/NC(=O)c1cc(Br)ccc1O,68.2,> 100,65.2,> 100,> 100,> 100,71.4,36.6,95.5,87.6,33.2,69.2,> 100,> 100,> 100,> 100,70.9,64.4
COc1cc2cc(C(=O)N3CC(CCl)c4ccccc43)[nH]c2c(OC)c1OC (stereo unspecified),> 100,> 100,> 100,> 100,> 100,> 100,> 57.9,> 100,> 92.1,> 100,> 100,> 100,> 100,> 100,> 100,> 100,> 100,> 100
CCc1c(Cc2cc(C)cc(C)c2)n2c(nc1=O)SCC2CBr (stereo unspecified),> 50,> 50,> 50,40.4,> 50,> 50,> 50,> 50,–,> 50,> 50,> 50,> 50,> 50,> 50,> 50,> 50,> 50
CCS(=O)(=O)CCn1cnc2c1c(=O)n(C)c(=O)n2C,> 100,> 100,> 100,> 100,> 100,> 100,> 100,> 100,> 100,> 100,> 100,> 100,> 100,> 100,> 100,–,> 100,> 100
C=CC[C@@]1(C)CCCCCCCCC[C@@](C)(CC=C)C1=O,> 100,> 100,62.3,57.9,94.5,33,38.2,46.1,> 100,> 100,42.8,> 100,> 100,> 100,> 100,58.1,32.6,> 100
COC(=O)c1ccccc1/C=C1\Cc2cc(C)c(C)cc2C1=O,> 100,> 100,> 100,> 100,> 100,96.8,> 100,> 100,85.8,> 100,> 100,> 100,> 100,> 100,> 100,> 100,> 100,> 100
COC(=O)[C@@H]1C[C@H]([Se]c2ccccc2)CN1C(=O)OCc1ccccc1,> 100,65,60.7,> 100,> 100,> 100,70.4,66,> 100,69.2,> 100,> 100,68.2,> 100,> 100,77.2,84.3,> 100
O=C1NC(N2CCCC(CO)C2)=N/C1=C\c1ccc(Cl)cc1 (stereo unspecified),> 100,> 100,> 100,> 100,> 100,> 100,> 100,> 100,> 100,> 100,> 100,> 100,> 100,> 100,> 100,> 100,> 100,> 100
NC(=Nc1ccc(O)cc1)S(=O)O,> 100,> 100,> 100,> 100,> 100,> 100,> 100,> 100,> 100,> 100,> 100,> 100,> 100,> 100,> 100,> 100,> 100,> 100
C=CCOC(=O)[C@@H]1C[C@@H](OC(C)(C)C)CN1C(=O)[C@@H]1[C@H]2OC(C)(C)O[C@H]2CN1C(=O)OCC1c2ccccc2-c2ccccc21,39.4,34.7,37.1,15.3,11,28.8,33.1,29.1,4.51,34.6,36.3,10.6,33.4,9.87,36,39.2,24.7,34.1
Cc1cc(OCC(=O)N/N=C/C(Br)=C/c2ccccc2)nc(SCC(=O)N/N=C/C(Br)=C/c2ccccc2)n1,> 100,> 100,> 100,–,> 100,> 100,> 100,> 100,> 100,> 100,> 100,> 100,> 100,> 100,> 100,–,> 100,> 100
COc1ccc(C2SC(C)C(=O)N2c2nc(-c3nc(-c4ccc(Cl)cc4)cs3)cs2)cc1 (stereo unspecified),> 100,> 100,> 100,> 100,> 100,> 100,> 100,> 100,> 100,–,> 100,> 100,> 100,> 100,> 100,> 100,> 100,> 100
NC(N)=NCCCC(NC(=O)OCCCCCCn1ccc(N)nc1=O)C(=O)O (stereo unspecified),> 100,> 100,> 100,–,> 100,> 100,> 100,> 100,> 100,> 100,> 100,> 100,> 100,> 100,> 100,–,> 100,> 100
Cc1c(C)c2c(c(N)c1C#N)C(=O)N(CCN1CCNCC1)C2=O,> 100,> 100,> 100,> 100,> 100,> 100,–,> 100,–,> 100,> 100,> 100,> 100,> 100,> 100,73.1,70.6,> 100
NC(=O)NC(=O)c1cccc(NC(=O)CBr)c1,0.384,< 0.0358,1.43,–,14.4,0.0582,< 0.0291,< 0.0207,1.29,7.47,–,6.8,< 0.0226,0.799,0.549,0.746,1.38,3.11
CCCCC(=O)Oc1ccc2c(C)cc(=O)oc2c1,–,> 100,> 100,> 100,> 100,> 100,> 100,> 100,> 100,> 100,> 100,> 100,> 100,> 100,> 100,> 100,> 100,> 100
NC(Cc1ccccc1)(C(=O)O)C(=O)O,> 100,> 100,> 100,> 100,> 100,> 100,> 100,–,> 100,> 100,> 100,> 100,> 100,> 100,> 100,> 100,> 100,> 100
COc1cc(/C=C/c2cc(/C=C/c3ccc(O)c(OC)c3)oc(=O)c2)ccc1O,> 34.4,22.5,12.2,> 100,18,> 51.8,> 22.6,–,27.2,> 100,> 26.1,> 36.2,> 100,26.1,> 100,10.7,1.08,13.6
COc1cc2c(cc1OCc1ccccc1)NC(=S)[C@@H]1CCCN1C2=S,> 100,> 100,> 100,> 100,> 100,> 100,> 100,–,66.2,> 100,> 100,> 100,> 100,> 100,> 100,> 100,> 100,> 100
O=C1/C(=C/c2ccco2)N=C(c2ccccc2)N1c1cc2cc(Sc3ccccc3)ccc2[nH]1,> 25,> 25,> 25,> 25,–,–,> 25,5.96,–,> 25,> 25,> 25,> 25,> 25,> 25,> 25,> 25,> 25
